Assay results reported in ChEMBL document CHEMBL1125996, “Avermectin analogs with a spacer between the aglycone and the disaccharide” (1991).

tested on: Artemia salina; assay: Compound was tested for its inhibitory activity using brine shrimp (Artemia salina) immobilization assay; highest level tested, showed <100% activity; type: functional

SMILES | IC100 [ng/mL]
CC[C@H](C)[C@H]1O[C@]2(CC[C@@H]1C)C[C@@H]1C[C@@H](C/C=C(\C)[C@@H](OC(=O)OCCO[C@H]3C[C@H](OC)[C@@H](O[C@H]4C[C@H](OC)[C@@H](O)[C@H](C)O4)[C@H](C)O3)[C@@H](C)/C=C/C=C3\CO[C@@H]4[C@H](O)C(C)=C[C@@H](C(=O)O1)[C@]34O)O2 | >55500

tested on: Artemia salina; assay: Compound was tested for its inhibitory activity using brine shrimp (Artemia salina) immobilization assay; type: functional

SMILES | IC100 [ng/mL]
CC[C@H](C)[C@H]1O[C@]2(CC[C@@H]1C)C[C@@H]1C[C@@H](C/C=C(\C)[C@@H](OCOCCO[C@@H]3C[C@H](OC)[C@@H](O[C@H]4C[C@H](OC)[C@@H](O)[C@H](C)O4)[C@H](C)O3)[C@@H](C)/C=C/C=C3\CO[C@@H]4[C@H](O)C(C)=C[C@@H](C(=O)O1)[C@]34O)O2 | 27800
CC[C@H](C)[C@H]1O[C@]2(CC[C@@H]1C)C[C@@H]1C[C@@H](C/C=C(\C)[C@@H](OC(=O)OCCO[C@@H]3C[C@H](OC)[C@@H](O[C@H]4C[C@H](OC)[C@@H](O)[C@H](C)O4)[C@H](C)O3)[C@@H](C)/C=C/C=C3\CO[C@@H]4[C@H](O)C(C)=C[C@@H](C(=O)O1)[C@]34O)O2 | 41650
CC[C@H](C)[C@H]1O[C@]2(CC[C@@H]1C)C[C@@H]1C[C@@H](C/C=C(\C)[C@@H](OCCO[C@H]3C[C@H](OC)[C@@H](O[C@H]4C[C@H](OC)[C@@H](O)[C@H](C)O4)[C@H](C)O3)[C@@H](C)/C=C/C=C3\CO[C@@H]4[C@H](O)C(C)=C[C@@H](C(=O)O1)[C@]34O)O2 | 1730
CC[C@H](C)[C@H]1O[C@]2(CC[C@@H]1C)C[C@@H]1C[C@@H](C/C=C(\C)[C@@H](OCOCCO[C@H]3C[C@H](OC)[C@@H](O[C@H]4C[C@H](OC)[C@@H](O)[C@H](C)O4)[C@H](C)O3)[C@@H](C)/C=C/C=C3\CO[C@@H]4[C@H](O)C(C)=C[C@@H](C(=O)O1)[C@]34O)O2 | 27800
CC[C@H](C)[C@H]1O[C@]2(CC[C@@H]1C)C[C@@H]1C[C@@H](C/C=C(\C)[C@@H](OCCO[C@@H]3C[C@H](OC)[C@@H](O[C@H]4C[C@H](OC)[C@@H](O)[C@H](C)O4)[C@H](C)O3)[C@@H](C)/C=C/C=C3\CO[C@@H]4[C@H](O)C(C)=C[C@@H](C(=O)O1)[C@]34O)O2 | 1730
CC[C@H](C)[C@H]1O[C@]2(C=C[C@@H]1C)C[C@@H]1C[C@@H](C/C=C(\C)[C@@H](O[C@H]3C[C@H](OC)[C@@H](O[C@H]4C[C@H](OC)[C@@H](O)[C@H](C)O4)[C@H](C)O3)[C@@H](C)/C=C/C=C3\CO[C@@H]4[C@H](O)C(C)=C[C@@H](C(=O)O1)[C@]34O)O2 [ABAMECTIN COMPONENT B1A] | 430
